Source: US20230094176A1, “COMPOUNDS AND METHODS FOR IMPROVING IMPAIRED ENDOGENOUS FIBRINOLYSIS USING HISTONE DEACETYLASE INHIBITORS” (Cereno Scientific AB, priority 2011, published 2023)

Key:
[1] = tested on: local release of t-PA from the endothelium; assay: Intermediate endpoint study: in vivo t-PA release in man (perfused-forearm model, Substance P); set-up: species or system human; settings: for increase of total amount of t-PA released (AUC): patients with stable angina pectoris, 2 weeks, daily oral dose: Vorinostat 10 mg, Belinostat 65 mg, Givinostat 2 mg, Panobinostat 0.5 mg, PCI-24781 2 mg, JNJ-26481585 0.2 mg, Mocetinostat 2 mg, SB939 0.4 mg, CXD101 10 mg
Method: (§1) The study comprises 16 patients with stable angina pectoris. Patients are investigated before and after oral treatment with 10 mg Vorinostat (Zolinza®, Merck & Co., Inc, NJ, USA) daily for 2 weeks. The study has a randomized, cross-over design and t-PA release capacity is investigated before and after treatment, with each individual serving as his/her own control
The capacity for t-PA release is investigated in the perfused-forearm model that we have developed, which is the only method that permits a direct measurement of the local release of t-PA from the endothelium (Hrafnkelsdottir, T., et al. Lancet 352, 1597-1598 (1998), Wall, U., et al. Blood 91, 529-537 (1998)). Since t-PA has a rapid hepatic clearance, it is impossible to infer endothelial release rates from plasma levels obtained from standard venous samples. With the invasive model, however, net forearm t-PA release rates are calculated from arterio-venous concentration gradients of t-PA after correction for forearm plasma flow. Acute t-PA release responses are induced by intra-arterial infusions of Substance P (Bachem, Bubendorf, Switzerland), and the amount and protein secretion profile is used as a measure of t-PA release capacity.
as §1, with “pectoris and elevated serum levels of high-sensitivity C-reactive protein (hs-CRP) >3 mg/L.” for “pectoris.”, “100” for “10”, “valproic acid twice” for “Vorinostat (Zolinza®, Merck & Co., Inc, NJ, USA)”, “control.” for “control”
The capacity for t-PA release is investigated in the perfused-forearm model that we have developed, which is the only method that permit a direct measurement of the local release of t-PA from the endothelium (Hrafnkelsdottir, T., et al. Lancet 352, 1597-1598 (1998), Wall, U., et al. Blood 91, 529-537 (1998). Since t-PA has a rapid hepatic clearance, it is impossible to infer endothelial release rates from plasma levels obtained from standard venous samples.
With the invasive model, however, net forearm t-PA release rates are calculated from arterio-venous concentration gradients of t-PA after correction for forearm plasma flow. Acute t-PA release responses are induced by intra-arterial infusions of Substance P (Bachem, Bubendorf, Switzerland), and the amount and protein secretion profile is used as a measure of t-PA release capacity.

[2] = tested on: patients with a recent major atherothrombotic cardiovascular event; assay: Clinical outcome study in high-risk patients for prevention of recurrent events; type: in vivo, human; settings: for annual absolute event rate lowered to: annual risk estimated approximately 7%
Method: The first clinical outcome study is performed in high-risk patients who have experienced a recent major atherothrombotic cardiovascular event (myocardial infarction or ischemic stroke) to investigate the preventive effect of Vorinostat treatment on the risk for recurrent events. The annual risk for a recurrent atherothrombotic event in the investigated population is estimated to approximately 7%. Patients are randomized in a parallel study design to receive double-blind oral treatment with 10 mg Vorinostat or placebo daily, in addition to optimal conventional treatment. The event rate is monitored by Kaplan-Meyer statistics. The primary efficacy endpoint is the composite measure of either mortality, or non-fatal myocardial infarction or ischemic stroke. The study is event-driven to a total of 180 events in the placebo group.
The first clinical outcome study is performed in high-risk patients who have experienced a recent major atherothrombotic cardiovascular event (myocardial infarction or ischemic stroke) to investigate the preventive effect of VPA treatment on the risk for recurrent events. Signs of a low-grade inflammatory condition is an inclusion criterion, defined as an elevated serum level of high-sensitivity C-reactive protein (hs-CRP) >3 mg/L. The annual risk for a recurrent atherothrombotic event in the investigated population is estimated to approximately 7%. Patients are randomized in a parallel study design to receive double-blind oral treatment with 100 mg valproic acid or placebo twice daily, in addition to optimal conventional treatment. The event rate is monitored by Kaplan-Meyer statistics. The primary efficacy endpoint is the composite measure of either mortality, or non-fatal myocardial infarction or ischemic stroke. The study is event-driven to a total of 180 events in the placebo group. […] Thus, this study confirms the clinical efficacy and feasibility of using VPA for secondary prevention of cardiovascular events.

[3] = tested on: healthy subjects with an increased risk for atherothrombotic cardiovascular events; assay: Primary preventive clinical outcome study; type: in vivo, human
Method: The third outcome study investigates the primary preventive effect of Vorinostat in healthy subjects with an increased risk for atherothrombotic cardiovascular events i.e. cigarette smoking, abnormal blood lipid levels, hypertension, diabetes, abdominal obesity, low-grade inflammation and/or atherosclerosis. Subjects are randomized to double-blind oral treatment with 10 mg Vorinostat or placebo daily. The risk of a primary atherothrombotic event is followed annually. The primary composite efficacy endpoint is mortality, or non-fatal myocardial infarction or ischemic stroke. The study is event-driven to a total of 180 events in the placebo group.
The third outcome study investigates the primary preventive effect of VPA in healthy subjects with an increased risk for atherothrombotic cardiovascular events due to low-grade inflammation. The inflammatory activation is clinically defined as an elevated serum level of high-sensitivity C-reactive protein (hs-CRP) >3 mg/L. Subjects are randomized to double-blind oral treatment with 100 mg valproic acid or placebo twice daily. The risk of a primary atherothrombotic event is followed annually. The primary composite efficacy endpoint is mortality, or non-fatal myocardial infarction or ischemic stroke. The study is event-driven to a total of 180 events in the placebo group. In this population the annual event rate is reduced by 30% from 1.5 to 1%.

[4] = doses as for risk reduction (Vorinostat 10 mg, Belinostat 65 mg, Givinostat 2 mg, Panobinostat 0.5 mg, PCI-24781 2 mg, JNJ-26481585 0.2 mg, Mocetinostat 2 mg, SB939 0.4 mg, CXD101 10 mg daily)
[5] = long-term, daily oral dose: Vorinostat 10 mg, Belinostat 65 mg, Givinostat 2 mg, Panobinostat 0.5 mg, PCI-24781 2 mg, JNJ-26481585 0.2 mg, Mocetinostat 2 mg, SB939 0.4 mg, CXD101 10 mg
[6] = daily oral dose: Vorinostat 10 mg, Belinostat 65 mg, Givinostat 2 mg, Panobinostat 0.5 mg, PCI-24781 2 mg, JNJ-26481585 0.2 mg, Mocetinostat 2 mg, SB939 0.4 mg, CXD101 10 mg
[7] = hs-CRP >3 mg/L, 100 mg valproic acid orally twice daily

SMILES	increase of total amount of t-PA released (AUC) [1]	annual absolute event rate lowered to [2, 4]	reduction of risk for recurrent atherothrombotic events, in addition to conventional therapy [2, 5]	annual event rate with treatment (reduced from 1.5) [3, 6] [%]	reduction of annual event rate [3, 6] [%]	increase of total amount of t-PA released ([1]; stable angina pectoris and hs-CRP >3 mg/L, 100 mg valproic acid orally twice daily for 2 weeks)	reduction of risk for recurrent atherothrombotic events, in addition to conventional therapy [2, 7]	annual absolute event rate lowered to [2, 7]	annual event rate with treatment (reduced from 1.5) [3, 7] [%]	reduction of annual event rate [3, 7] [%]
Cn1cc(CNCC2CCN(c3ncc(C(=O)NO)cn3)CC2)c2ccccc21 [JNJ-26481585, N-hydroxy-2-(4-((((1-methyl-1H-indol-3-yl)methyl)amino)methyl)piperidin-1-yl)pyrimidine-5-carboxamide]	approximately 50%	approximately 5%	approximately 30%	1	30					
CN(C)Cc1c(C(=O)NCCOc2ccc(C(=O)NO)cc2)oc2ccccc12 [PCI-24781, 3-(dimethylaminomethyl)-N-[2-[4-(hydroxycarbamoyl)phenoxy]ethyl]-1-benzofuran-2-carboxamide]	approximately 50%	approximately 5%	approximately 30%	1	30					
O=C(/C=C/c1cccc(S(=O)(=O)Nc2ccccc2)c1)NO [Belinostat]	approximately 50%	approximately 5%	approximately 30%	1	30					
CCN(CC)Cc1ccc2cc(COC(=O)Nc3ccc(C(=O)NO)cc3)ccc2c1.Cl [Givinostat]	approximately 50%	approximately 5%	approximately 30%	1	30					
O=C(CCCCCCC(=O)Nc1ccccc1)NO [Vorinostat]	approximately 50%	approximately 5%	approximately 30%	1	30					
Nc1ccccc1NC(=O)c1ccc(CNc2nccc(-c3cccnc3)n2)cc1 [Mocetinostat]	approximately 50%	approximately 5%	approximately 30%	1	30					
Cc1nn(C)cc1CN1CCC(c2ccc(C(=O)Nc3ccccc3N)cc2)CC1 [CXD101]	approximately 50%	approximately 5%	approximately 30%	1	30					
CCCC(CCC)C(=O)O [VPA, valproic acid]						approximately 50%	approximately 30%	approximately 5%	1	30
